Source: patent publication US20240336573A1, “COMPOUND FOR THE TREATMENT AND PROPHYLAXIS OF INFECTIOUS DISEASES” (Eberhard Karls Universität Tübingen Medizinische Fakultät, priority 2021, published 2024)

Experiments:
[1] = system: E. coli BW25113, E. coli JW2496-3, E. coli ATCC 25922; experiment: Minimal inhibitory concentration assay (bactericidal/bacteriostatic assessment); format: cell-based; conditions: dilution series 100-1.7 μM
Text: The intended effect of a SurA inhibitor should be the induction of a disturbance of the outer membrane composition resulting in an increased susceptibility to antibiotic treatment. Of note, Vancomycin is typically not used to treat infections with Gram-negative bacteria, because it is excluded by the OM and not efficient at concentrations that could be achieved in patients. However, at appropriate dosing in vitro it can be used to detect outer membrane defects. For determining a potential sensitizing effect of Vancomycin treatment, the inventors first tested whether the compounds at hand were bactericidal per se. Therefore, the inventors performed a minimal inhibitory concentration (MIC) assay. To this end, 5 ml overnight cultures of E. coli BW25113 (Keio-Collection reference strain), E. coli JW2496-3 (Keio-Collection single gene knockout for bamB, which suffers from decreased outer membrane integrity) and E. coli ATCC 25922 (a reference strain recommended for antibiotic susceptibility testing) were grown in Mueller Hinton Broth, Cation adjusted (MHB-II). The next day, the OD was adjusted to obtain 1*10^8 CFU/ml using fresh MHB-II. Next, this bacterial solution was diluted 1:100 into 20 ml fresh MHB-II. 50 μl of this bacteria solution were then transferred into each well of a 96-well plate prefilled with 50 μl MHB-II supplemented with the desired compounds. The test plates for the bactericidal assessment contained dilution series of the compounds from 100-1.7 μM. Plates were sealed with a gas permeable membrane and incubated o/n at 37° C. in a humid chamber without shaking. After o/n incubation, bacterial growth was quantified by measuring the optical density at 600 nm wavelength in a multiplate reader. Compounds showing no growth inhibition at 100 μM were considered non-bactericidal. Of note, the bactericidal effect of Vancomycin was assessed similarly for each test strain using Vancomycin concentrations ranging from […]. This was done to identify a Vancomycin concentration at which the strains just managed to survive.

E. coli BW25113 = experiment: Sensitizer MIC assay (vancomycin); format: cell-based; conditions: 100 μM compound, wildtype strain
Description: (§1) To test for the sensitizer properties of the compounds, the inventors then performed a sensitizer MIC assay. To this end, E. coli BW25113, E. coli JW2496-3, and E. coli ATCC 25922 inocula were prepared as described above. Each well of a 96-well plate was prefilled with a fixed compound concentration of 100 μM and a dilution series of Vancomycin ranging from […]. A sensitizing effect was defined as reduction of the MIC value of Vancomycin of the respective test strain.

E. coli ATCC 25922 = experiment: Sensitizer MIC assay (vancomycin); format: cell-based; conditions: vancomycin; 100 μM compound; type strain
Description: as §1

E. coli JW2496-3 = experiment: Sensitizer MIC assay (vancomycin); format: cell-based; conditions: 100 μM compound, more susceptible strain
Description: as §1

SurA = SurA (Escherichia coli, UniProt P0ABZ6); experiment: Luciferase-based SurA activity assay (primary assay, in-house); format: biochemical, E. coli; conditions: n/d: no signal detected; for Primary Assay ICmax: QHL-10 derivatives, dose response up to 125 μM; for Primary Assay Amplitude: amplitude of signal
Chain of SurA (P0ABZ6 21-428): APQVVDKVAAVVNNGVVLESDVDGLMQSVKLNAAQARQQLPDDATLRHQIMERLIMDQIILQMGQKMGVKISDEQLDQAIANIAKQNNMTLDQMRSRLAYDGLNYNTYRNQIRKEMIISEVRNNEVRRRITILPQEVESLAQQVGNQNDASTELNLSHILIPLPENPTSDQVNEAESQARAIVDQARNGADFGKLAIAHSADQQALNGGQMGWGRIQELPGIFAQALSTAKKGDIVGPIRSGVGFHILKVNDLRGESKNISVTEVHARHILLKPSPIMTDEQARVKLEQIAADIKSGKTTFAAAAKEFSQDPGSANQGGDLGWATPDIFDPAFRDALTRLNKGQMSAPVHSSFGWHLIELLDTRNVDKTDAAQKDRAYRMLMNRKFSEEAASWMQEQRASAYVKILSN
Text: The biological function of SurA is to bind and to keep outer membrane proteins that have reached the periplasm in an unfolded but folding-competent state. The inventors' assay is based on this interaction and uses firefly Luciferase (fLuc) as a non-native substrate. […] This is exploited in the assay (FIG. 3). The loss of tertiary structure of fLuc leads to the exposure of binding sites for SurA. It is known that SurA binds selectively to a special group of substrates. These substrates have in common the specific patterns of hydrophobic amino acids that are highly enriched in the beta strands of integral outer membrane proteins. These motifs are present in OMPs of all Gram-negative bacteria and in fLuc as well. Upon mild heat treatment of fLuc and its subsequent partial unfolding, fLuc is accepted as a substrate by SurA. Of note, these intermediates served as reporter substrates to determine the activity of a […] folding chaperone. […] This interaction remains stable upon temperature reduction. Next, the temperature of the assay is reduced to room temperature and luciferase activity is subsequently measured by addition of Luciferin and ATP. In conditions without SurA, fLuc will refold into its active conformation resulting in a luminescence signal.
In short, the Luciferase based SurA activity assay was performed in SurA Activity Assay Buffer (40 mM HEPES pH 7.4, 20 mM MgSO4, 0.5 g/I BSA). SurA aliquots were thawn at RT, activated by mild heat treatment and cooled down to RT for 10 min. […] Solution A containing 10 mM ATP as well as 0.3 mM Luciferin (Promega Beetle Luciferin, Potassium Salt) in water was prepared. Luciferase working solution was prepared by diluting 1 ml Luciferase working stock (100 nM) with 9 ml assay buffer. 33 μl of the protein solution were added to every 2nd row of a well of a 384-well PS, white, flat bottom plate. […] Subsequently, 2 μl of compound in DMSO were added in quadruplicates (4 wells each of protein solution and buffer controls). These compound solutions could contain either various compounds or different dilutions of the same compound allowing screening inhibitor activity in a dose dependent manner. After compound addition, plates were incubated 15 min at RT. After this incubation, 5 μl of Luciferase working solution were added to each well. Next, the plates were incubated 25 min at 38° C. to partially unfold the Luciferase. Subsequently, the assay plate was cooled for 5 min at 4° C. followed by 10 min incubation at RT prior to luminescence measurement. Luminescence was measured in a TECAN infinite M200 pro plate reader for each well individually after injection of 10 μl Solution A.

Compound | Bacteriostatic MIC Assay Result [1] | Sensitizer MIC Assay (log2-fold reduction of MIC in presence of compound) BW25113 (E. coli BW25113) | Sensitizer MIC Assay (log2-fold reduction of MIC in presence of compound) ATCC25922 (E. coli ATCC 25922) | Sensitizer MIC Assay (log2-fold reduction of MIC in presence of compound) JW2496-3 (E. coli JW2496-3) | Primary Assay ICmax (SurA) | Primary Assay Amplitude (SurA)
CCOC(=O)COc1ccc(Cc2nc(C(N)=O)c(NC(=O)c3ccc(-c4ccccc4)cc3)[nH]2)cc1 [Compound 1a, Ethyl 2-(4-((5-([1,1′-biphenyl]-4-carboxamido)-4-carbamoyl-1H-imidazol-2-yl)methyl)-phenoxy)acetate] | non-bacteriostatic | 0 log2-fold | 0 log2-fold | 0 log2-fold | 16 µM | high
CCOC(=O)COc1ccc(Cc2nc(C(N)=O)c(NC(=O)c3cccc(-c4ccccc4)c3)[nH]2)cc1 [Compound 1b, Ethyl 2-(4-((5-([1,1′-biphenyl]-3-carboxamido)-4-carbamoyl-1H-imidazol-2-yl)methyl)phenoxy)acetate] | non-bacteriostatic | – | – | – | – | –
NC(=O)c1nc(Cc2ccc(OCc3ccccc3)cc2)[nH]c1NC(=O)c1ccc(-c2ccccc2)cc1 [Compound 1d, 5-([1,1′-biphenyl]-4-carboxamido)-2-(4-(benzyloxy)benzyl)-1H-imidazole-4-carboxamide] | non-bacteriostatic | 0 log2-fold | 0 log2-fold | 0 log2-fold | 32 µM | low
NC(=O)c1nc(Cc2ccccc2)[nH]c1NC(=O)c1ccc(-c2ccccc2)cc1 [Compound 1e, 5-([1,1′-biphenyl]-4-carboxamido)-2-benzyl-1H-imidazole-4-carboxamide] | non-bacteriostatic | 0 log2-fold | 0 log2-fold | 0 log2-fold | 16 µM | high
COc1ccc(Cc2nc(C(N)=O)c(NC(=O)c3ccc(-c4ccccc4)cc3)[nH]2)cc1 [Compound 1f, 5-([1,1′-biphenyl]-4-carboxamido)-2-(4-methoxybenzyl)-1H-imidazole-4-carboxamide] | slightly | – | – | – | 16 µM | high
NC(=O)c1nc(Cc2ccc(OCC(=O)O)cc2)[nH]c1NC(=O)c1cccc(-c2ccccc2)c1 [Compound 2b, 2-(4-((5-([1,1′-biphenyl]-3-carboxamido)-4-carbamoyl-1H-imidazol-2-yl)methyl)phenoxy)acetic acid] | non-bacteriostatic | 0 log2-fold | 0 log2-fold | 0 log2-fold | 64 µM | low
NC(=O)c1nc(Cc2ccc(OCC(=O)O)cc2)[nH]c1NC(=O)c1ccccc1-c1ccccc1 [Compound 2c, 2-(4-((5-([1,1′-biphenyl]-2-carboxamido)-4-carbamoyl-1H-imidazol-2-yl)methyl)phenoxy)acetic acid] | non-bacteriostatic | 0 log2-fold | 0 log2-fold | 0 log2-fold | – | –
NC(=O)c1nc(Cc2ccc(O)cc2)[nH]c1NC(=O)c1ccc(-c2ccccc2)cc1 [Compound 2d, 5-([1,1′-biphenyl]-4-carboxamido)-2-(4-hydroxybenzyl)-1H-imidazole-4-carboxamide] | non-bacteriostatic | – | – | – | 16 µM | high
NC(=O)c1nc(-c2cccc(N)c2)[nH]c1NC(=O)c1ccc(-c2ccccc2)cc1 [Compound 3b, 5-([1,1′-biphenyl]-4-carboxamido)-2-(3-aminophenyl)-1H-imidazole-4-carboxamide] | non-bacteriostatic | 1 log2-fold | 1 log2-fold | 1-3 log2-fold | 8 µM | high
NC(=O)c1nc(-c2ccccc2O)[nH]c1NC(=O)c1ccc(-c2ccccc2)cc1 [Compound 3c, 5-([1,1′-biphenyl]-4-carboxamido)-2-(2-hydroxyphenyl)-1H-imidazole-4-carboxamide] | non-bacteriostatic | 0 log2-fold | 1-2 log2-fold | 1-2 log2-fold | 8 µM | high
NC(=O)c1nc(-c2cccc(N)c2)[nH]c1NC(=O)Cc1cccc2ccccc12 [Compound 3i, 2-(3-aminophenyl)-5-(2-(naphthalen-1-yl)acetamido)-1H-imidazole-4-carboxamide] | non-bacteriostatic | – | – | – | – | –
NC(=O)c1nc(-c2ccccc2O)[nH]c1NC(=O)Cc1cccc2ccccc12 [Compound 3j, 2-(2-hydroxyphenyl)-5-(2-(naphthalen-1-yl)acetamido)-1H-imidazole-4-carboxamide] | non-bacteriostatic | 0 log2-fold | 1 log2-fold | 1-4 log2-fold | – | –
NC(=O)c1nc(-c2ccc(F)c(N)c2)[nH]c1NC(=O)Cc1cccc2ccccc12 [Compound 3k, 2-(3-amino-4-fluorophenyl)-5-(2-(naphthalen-1-yl)acetamido)-1H-imidazole-4-carboxamide] | non-bacteriostatic | 0 log2-fold | 0 log2-fold | 0 log2-fold | – | –
NC(=O)c1nc(-c2cc(F)c(F)c(F)c2)[nH]c1NC(=O)c1ccccc1OCc1ccccc1 [Compound 3p, 5-(2-(benzyloxy)benzamido)-2-(3,4,5-trifluorophenyl)-1H-imidazole-4-carboxamide] | slightly | – | – | – | – | –
